In patent US20150203512 one finds ring closure, yield of all isomers data, which are given here for 8 compounds.

For the data set the following is noted: rcm bond, Zhan-1B, dichloromethane, 25.0 °C.

Where two headings read alike, the source gives them in different places.

In the case of `CN1C(=O)C=CCCNc2cc(F)ccc2CNC(=O)c2nc3n(c(=O)c2O)CCCCC31` (centres unmarked), the ring closure, yield of all isomers (from C=CCCNc1cc(F)ccc1CNC(=O)c1nc2n(c(=O)c1O)CCCCC2N(C)C(=O)C=C, 2.0 mM, 20.0 h) was determined as 53%.

`CN1C(=O)OCCCC=Cc2cc(F)ccc2CNC(=O)c2nc3n(c(=O)c2OS(C)(=O)=O)CCCCC31` (centres unmarked) registered a ring closure, yield of all isomers (from C=CCCCOC(=O)N(C)C1CCCCn2c1nc(C(=O)NCc1ccc(F)cc1C=C)c(OS(C)(=O)=O)c2=O, 4.25 mM, 15.0 h) of 97%. In the case of `CN1CCC=CC(=O)N(C)C2CCCCn3c2nc(c(O)c3=O)C(=O)NCc2ccc(F)cc21` (centres unmarked), the ring closure, yield of all isomers (from C=CCCN(C)c1cc(F)ccc1CNC(=O)c1nc2n(c(=O)c1O)CCCCC2N(C)C(=O)C=C, 1.4 mM, 20.0 h) was determined as 63%. For the compound `CC[C@H]1COC[C@@H]2c3nc(c(O)c(=O)n31)C(=O)NCc1ccc(F)cc1N(C)CCC=CC(=O)N2C`, under “from C=CCCN(C)c1cc(F)ccc1CNC(=O)c1nc2n(c(=O)c1O)[C@@H](CC)COC[C@H]2N(C)C(=O)C=C, 2.4 mM, 15.0 h”, the ring closure, yield of all isomers stood at 62%. `CN1C(=O)C=CCCOc2cc(F)ccc2CNC(=O)c2nc3n(c(=O)c2O)CCCCC31` (centres unmarked): the ring closure, yield of all isomers (from C=CCCOc1cc(F)ccc1CNC(=O)c1nc2n(c(=O)c1O)CCCCC2N(C)C(=O)C=C, 5.14 mM, 15.0 h) turned out to be 51%. In turn, `CN1CC=Cc2cc(F)ccc2CNC(=O)c2nc3n(c(=O)c2OS(C)(=O)=O)CCCCC3N(C)C(=O)C1=O` (centres unmarked) had a ring closure, yield of all isomers (from C=CCN(C)C(=O)C(=O)N(C)C1CCCCn2c1nc(C(=O)NCc1ccc(F)cc1C=C)c(OS(C)(=O)=O)c2=O, 2.6 mM, 60.0 h) of 67%.

In turn, `CC[C@H]1COC[C@@H]2c3nc(c(O)c(=O)n31)C(=O)NCc1ccc(F)cc1OCCC=CC(=O)N2C` came in with a ring closure, yield of all isomers (from C=CCCOc1cc(F)ccc1CNC(=O)c1nc2n(c(=O)c1O)[C@@H](CC)COC[C@H]2N(C)C(=O)C=C, 3.88 mM, 15.0 h) of 51%.

For the setting “from C=CCCCC(=O)N(C)C1CCCCn2c1nc(C(=O)NCc1ccc(F)cc1C=C)c(OS(C)(=O)=O)c2=O, 0.9 mM, 24.0 h”, `CN1C(=O)CCCC=Cc2cc(F)ccc2CNC(=O)c2nc3n(c(=O)c2OS(C)(=O)=O)CCCCC31` (centres unmarked) registered a ring closure, yield of all isomers of 85%.
